Experimental data as given in PMC9081833, “Discovery of acylphloroglucinol-based meroterpenoid enantiomers as KSHV inhibitors from Hypericum japonicum” (RSC Advances, 2018).
Read-outs that look alike come from different tables or passages of the source.

Key:
Human iSLK.219 cells = conditions: 50% cytotoxic concentration, 48 h, with Dox and NaB
KSHV lytic replication [1] = conditions: for Selective index (CC50/IC50): human; for IC50: supernatant of iSLK.219 cells treated 48 h used to infect Vero cells 48 h, GFP readout
KSHV lytic replication [2] = assay: Field-based 3D QSAR model of anti-KSHV activity; design: species or system Kaposi's sarcoma associated herpesvirus (KSHV); unit not given here; conditions: log IC50 of the anti-KSHV IC50
Source text: Qualitative analysis was followed by quantitative SAR (QSAR) modelling utilizing the Field-Based QSAR Panel implemented in Schrödinger Suite[14] to set up CoMFA/CoMSIA models from these enantiomers. These enantiomers first superimposed using the flexible shape-based alignment method (Fig. 6). […] Experimental activities of additional analogues would likely provide a better model. Moreover, correlation between the observed activities and the predicted activities was plotted in Fig. 7.
QSAR studies were conducted with Schrödinger Suite 2017-1.
A data set (Table 3) was randomly assigned into training and test sets with a ratio of approximately 4/1, and their activities (IC50) were converted to the logarithm (log IC50). The minimized conformations of these enantiomers were generated utilizing LigPrep and aligned according to the flexible shape-based alignment method. The force field was used and the maximum PLS factors were set as 1/5 of the total number of the training set in order to avoid over-fitting. The parameters that were not mentioned were left as defaults.

in vitro = conditions: human, CC50, 50% cytotoxic concentration, iSLK.219 cells, 48 h, with Dox and NaB
KSHV lytic replication [3] = assay: in vitro; conditions: human, Selective index (CC50/IC50)
KSHV lytic replication [4] = assay: microbe, parasite or virus in culture; conditions: Human gammaherpesvirus 8, Vero, 48 h, supernatant of iSLK.219 cells treated 48 h used to infect Vero cells 48 h, GFP readout

SMILES: C=C(C)C1CCC2(C)Oc3c(c(O)cc(O)c3C(=O)C(C)C)CC12 (single isomer, unassigned; (-)) [Compound 1b, (−)-japonicol E]
- CC50 (Human iSLK.219 cells): 190 µM
- Selective index (CC50/IC50) (KSHV lytic replication [1]): 7.78
- IC50 (KSHV lytic replication [1]): 24.5 µM
- Observed activity (KSHV lytic replication [2]): 1.388

SMILES: CC(C)=CCCC(C)(O)C1Cc2c(O)cc(O)c(C(=O)C(C)C)c2O1 (single isomer, unassigned; (-)) [Compound 3b, (−)-japonicol G]
- CC50 (Human iSLK.219 cells): 50.1 µM
- Selective index (CC50/IC50) (KSHV lytic replication [1]): 7.48
- IC50 (KSHV lytic replication [1]): 6.7 µM
- Observed activity (KSHV lytic replication [2]): 0.826

SMILES: CC(C)C(=O)c1c(O)cc(O)c2c1OC1(C)CCC(C(C)(C)O)OC1C2 (stereo not shown) [Compound 6b]
- CC50 (Human iSLK.219 cells): 174 µM
- Observed activity (KSHV lytic replication [2]): 1.600

SMILES: CC(C)C(=O)c1c(O)cc(O)c(CC2C(C(C)(C)O)CCC2(C)O)c1O (stereo not shown) [Compound 8a]
- Selective index (CC50/IC50) (KSHV lytic replication [1]): >7.50
- IC50 (KSHV lytic replication [1]): 40 µM
- Observed activity (KSHV lytic replication [2]): 1.602
- CC50 (in vitro): > 300 µM

SMILES: C=C(C)C1CCC2(C)Oc3c(c(O)cc(O)c3C(=O)C(C)C)CC12 (single isomer, unassigned; (+)) [Compound 1a, (+)-japonicol E]
- Selective index (CC50/IC50) (KSHV lytic replication [1]): 23.49
- IC50 (KSHV lytic replication [1]): 8.3 µM
- Observed activity (KSHV lytic replication [2]): 0.919
- CC50 (in vitro): 195 µM

SMILES: CC(C)=CCCC(C)(O)C1Cc2c(O)cc(O)c(C(=O)C(C)C)c2O1 (single isomer, unassigned; (+)) [Compound 3a, (+)-japonicol G]
- Selective index (CC50/IC50) (KSHV lytic replication [1]): 3.66
- IC50 (KSHV lytic replication [1]): 21.7 µM
- Observed activity (KSHV lytic replication [2]): 1.337
- CC50 (in vitro): 79.5 µM

SMILES: CC(C)C(=O)c1c(O)cc(O)c2c1OC(C)(C)C1CCC(C)(O)C1C2 (stereo not shown) [Compound 7b]
- CC50 (Human iSLK.219 cells): > 300 µM
- IC50 (KSHV lytic replication [1]): 39.8 µM
- Observed activity (KSHV lytic replication [2]): 1.464

SMILES: CC(C)C(=O)c1c(O)cc(O)c2c1OC1(C)CCC(C(C)(C)O)OC1C2 (stereo not shown) [Compound 6a]
- Observed activity (KSHV lytic replication [2]): 1.247
- CC50 (in vitro): 141 µM

SMILES: CC(C)C(=O)c1c(O)cc(O)c(CC2C(C(C)(C)O)CCC2(C)O)c1O (stereo not shown) [Compound 8b]
- CC50 (Human iSLK.219 cells): > 300 µM
- Selective index (CC50/IC50) (KSHV lytic replication [1]): >1.89
- IC50 (KSHV lytic replication [1]): 158 µM
- Observed activity (KSHV lytic replication [2]): 2.200

SMILES: CC(C)=CCCC(C)(O)C1Cc2c(O)cc(O)c(C(=O)c3ccccc3)c2O1 (single isomer, unassigned; (+)) [Compound 4a, (+)-japonicol H]
- Selective index (CC50/IC50) (KSHV lytic replication [1]): 25.70
- IC50 (KSHV lytic replication [1]): 4.9 µM
- Observed activity (KSHV lytic replication [2]): 0.690
- CC50 (in vitro): 126 µM

SMILES: CC(C)C(=O)c1c(O)cc(O)c2c1OC(C)(C)C1CCC(C)(O)C1C2 (stereo not shown) [Compound 7a]
- IC50 (KSHV lytic replication [1]): 17.7 µM
- Observed activity (KSHV lytic replication [2]): 0.942
- CC50 (in vitro): 221 µM

SMILES: CC(C)C(=O)c1c(O)cc(O)c2c1OC1(C)CCC(C(C)(C)O)C2C1O (stereo not shown) [Compound 5b]
- CC50 (Human iSLK.219 cells): > 500 µM
- Selective index (CC50/IC50) (KSHV lytic replication [1]): >3.55
- IC50 (KSHV lytic replication [1]): 141 µM
- Observed activity (KSHV lytic replication [2]): 2.149

SMILES: CC(C)C(=O)c1c(O)cc(O)c2c1OC1(C)CCC(C(C)(C)O)C2C1O (stereo not shown) [Compound 5a]
- Observed activity (KSHV lytic replication [2]): 2.307
- selectivity ratio (KSHV lytic replication [3]): > 2.46
- CC50 (in vitro): > 500 µM
- IC50 (KSHV lytic replication [4]): 203 µM

SMILES: CC(C)=CCCC1(C)Oc2c(c(O)cc(O)c2C(=O)C(C)C)CC1O (single isomer, unassigned; (+)) [Compound 2a, (+)-japonicol F]
- Observed activity (KSHV lytic replication [2]): 1.447
- selectivity ratio (KSHV lytic replication [3]): 4.5
- CC50 (in vitro): 126 µM
- IC50 (KSHV lytic replication [4]): 28 µM

SMILES: CC(C)=CCCC(C)(O)C1Cc2c(O)cc(O)c(C(=O)c3ccccc3)c2O1 (single isomer, unassigned; (-)) [Compound 4b, (−)-japonicol H]
- CC50 (Human iSLK.219 cells): > 200 µM
- Selective index (CC50/IC50) (KSHV lytic replication [1]): >6.79
- IC50 (KSHV lytic replication [1]): 29.5 µM
- Observed activity (KSHV lytic replication [2]): 1.469

SMILES: CC(C)=CCCC1(C)Oc2c(c(O)cc(O)c2C(=O)C(C)C)CC1O (single isomer, unassigned; (-)) [Compound 2b, (−)-japonicol F]
- CC50 (Human iSLK.219 cells): 150 µM
- Selective index (CC50/IC50) (KSHV lytic replication [1]): 5.50
- IC50 (KSHV lytic replication [1]): 27.3 µM
- Observed activity (KSHV lytic replication [2]): 1.436

SMILES: Nc1ccn(C[C@@H](CO)OCP(=O)(O)O)c(=O)n1 [Cidofovir, reference compound]
- selectivity ratio (KSHV lytic replication [3]): > 123
- CC50 (in vitro): > 1 µM
- IC50 (KSHV lytic replication [4]): 0.0081 µM
